Laboratory results from ChEMBL document CHEMBL1201862, “PubChem BioAssay data set” (2004).
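Cells were grown in 96-well plates and exposed to each compound for 48 hours at five concentrations; endpoints were interpolated linearly between bracketing concentrations, or set to the highest concentration if not reached. The concentration for 50% growth inhibition is given as GI50.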 Active and inactive are the calls of the source. Cut-off read from the data, not from the text of the source: active = GI50 up to about 1.1 µM and inactive = higher.

Assays:
Assay in all cases: NCI anticancer screen, dose series, 48 h
[1] = system: HOP-18
[2] = system: XF498
[3] = system: KM-20L2
[4] = system: SNB-78
[5] = system: M19-MEL
[6] = system: DMS-273
[7] = system: RXF 631
[8] = system: LXFL 529
[9] = system: DMS-114

With `COc1ccc(C2=C(Cl)c3cc(OC)c(OC)cc3C2Cl)cc1OC` (stereo not given) the GI50 [1] was 21.7 µM (inactive), the GI50 [2] was 16 µM (inactive) and the GI50 [3] was 15.6 µM (inactive). The GI50 [4] was 20.7 µM (inactive), the GI50 [5] was 17.3 µM (inactive) and the GI50 [6] was 14.3 µM (inactive). The GI50 [7] was 19.1 µM (inactive).

With `CC(=O)N1c2ccccc2C2=CC3C4C(=O)N(c5ccccc5)C(=O)C4C21C1C(=O)N(c2ccccc2)C(=O)C31` (stereo not given) the GI50 [1] was 34.4 µM (inactive), the GI50 [2] was 10.9 µM (inactive) and the GI50 [3] was 30.3 µM (inactive). For the same compound, the GI50 [8] was 81.3 µM (inactive), the GI50 [4] was 84.5 µM (inactive) and the GI50 [9] was 4.27 µM (inactive).

`COc1cc(CNc2nc3ccc(C(F)(F)F)cc3nc2-c2ccccc2)cc(OC)c1OC` was tested, and the GI50 [2] was 56.1 µM (inactive), the GI50 [3] was > 100 µM (inactive) and the GI50 [8] was 24.8 µM (inactive). For the same compound, the GI50 [4] was 14.5 µM (inactive), the GI50 [5] was 46.2 µM (inactive) and the GI50 [6] was 39 µM (inactive). The GI50 [7] was > 100 µM (inactive).

With `NC(=O)CN(CC(N)=O)C(N)=O` the GI50 [1] was > 100 µM (inactive), the GI50 [2] was > 100 µM (inactive) and the GI50 [3] was > 100 µM (inactive). The GI50 [8] was > 100 µM (inactive), the GI50 [4] was > 100 µM (inactive) and the GI50 [5] was > 100 µM (inactive). For the same compound, the GI50 [9] was > 100 µM (inactive) and the GI50 [6] was > 100 µM (inactive).

For `COc1cc(Br)c(C2OCCCO2)cc1OCc1ccccc1`, the GI50 [3] was > 100 µM (inactive), the GI50 [8] was 48.2 µM (inactive) and the GI50 [4] was 61.4 µM (inactive). The GI50 [5] was > 100 µM (inactive), the GI50 [9] was 47.1 µM (inactive) and the GI50 [6] was 37.6 µM (inactive). For the same compound, the GI50 [7] was > 100 µM (inactive).

With `O=C(c1ccco1)N(C(=S)N1CCN(c2ccccn2)CC1)C1CCCCC1` the GI50 [1] was > 100 µM (inactive), the GI50 [3] was > 100 µM (inactive) and the GI50 [8] was > 100 µM (inactive). The GI50 [4] was > 100 µM (inactive), the GI50 [5] was > 100 µM (inactive) and the GI50 [9] was 77.3 µM (inactive). For the same compound, the GI50 [6] was > 100 µM (inactive).

`CN(Cc1ccccc1)c1nc(=[N+](C)C)ss1` was tested, and the GI50 [1] was > 100 µM (inactive), the GI50 [2] was > 100 µM (inactive) and the GI50 [3] was > 100 µM (inactive). For the same compound, the GI50 [8] was 71.6 µM (inactive), the GI50 [4] was > 100 µM (inactive) and the GI50 [5] was 41.9 µM (inactive). For the same compound, the GI50 [9] was 20.3 µM (inactive), the GI50 [6] was 60.7 µM (inactive) and the GI50 [7] was 67.5 µM (inactive).

In the case of `O=S(=O)(/C=C/CS(=O)(=O)c1ccccc1)c1ccccc1`, the GI50 [1] is reported as > 100 µM (inactive), the GI50 [2] is reported as 20.7 µM (inactive) and the GI50 [3] is reported as 29.2 µM (inactive). For the same compound, the GI50 [8] was 29.1 µM (inactive), the GI50 [4] was 26.7 µM (inactive) and the GI50 [5] was 36.1 µM (inactive). For the same compound, the GI50 [9] was 23.4 µM (inactive), the GI50 [6] was 29.8 µM (inactive) and the GI50 [7] was 24.7 µM (inactive).

`CC1CSC(=S)N1C(=O)N1C(=S)SCC1C` (stereo not given) was tested, and the GI50 [1] was 53.6 µM (inactive), the GI50 [3] was 38.7 µM (inactive) and the GI50 [8] was 33.4 µM (inactive). For the same compound, the GI50 [4] was 43.2 µM (inactive), the GI50 [5] was 25.6 µM (inactive) and the GI50 [9] was 38.3 µM (inactive). For the same compound, the GI50 [6] was 20.1 µM (inactive).

With `CC1=CC(=O)c2cccc(O)c2C1=O` the GI50 [1] was 1.7 µM (inactive), the GI50 [2] was 1.79 µM (inactive) and the GI50 [3] was 20.5 µM (inactive). The GI50 [8] was 1.67 µM (inactive), the GI50 [4] was > 32.1 µM (inactive) and the GI50 [5] was 1.98 µM (inactive). For the same compound, the GI50 [9] was 2.74 µM (inactive) and the GI50 [6] was 2.42 µM (inactive).

For `O=C1c2ccncc2C(=O)c2c(O)ccc(O)c21`, the GI50 [1] was 12.9 µM (inactive), the GI50 [2] was 4.16 µM (inactive) and the GI50 [3] was 2.88 µM (inactive). The GI50 [8] was 10.3 µM (inactive), the GI50 [5] was 1.32 µM (inactive) and the GI50 [9] was 3.01 µM (inactive).

`C1CSCCSCCCS[C@@H]2CCCCC2SC1` (stereo not given in full) was tested, and the GI50 [1] was > 100 µM (inactive), the GI50 [3] was > 100 µM (inactive) and the GI50 [8] was > 100 µM (inactive). For the same compound, the GI50 [4] was > 100 µM (inactive), the GI50 [5] was > 100 µM (inactive) and the GI50 [9] was 28.2 µM (inactive). The GI50 [6] was > 100 µM (inactive).

In the case of `O=C(NCCCN1CCN(CCCNC(=O)c2cnc3ccccc3n2)CC1)c1cnc2ccccc2n1`, the GI50 [1] is reported as > 100 µM (inactive), the GI50 [3] is reported as > 100 µM (inactive) and the GI50 [8] is reported as > 100 µM (inactive). The GI50 [4] was > 100 µM (inactive), the GI50 [5] was > 100 µM (inactive) and the GI50 [9] was 70.1 µM (inactive). For the same compound, the GI50 [6] was > 100 µM (inactive) and the GI50 [7] was > 100 µM (inactive).

In the case of `COc1ccc(C(C#N)NNc2nc(C)cc(O)n2)cc1OC` (stereo not given), the GI50 [1] is reported as > 100 µM (inactive), the GI50 [3] is reported as > 100 µM (inactive) and the GI50 [8] is reported as > 100 µM (inactive). The GI50 [4] was > 100 µM (inactive), the GI50 [5] was > 100 µM (inactive) and the GI50 [9] was > 100 µM (inactive). For the same compound, the GI50 [6] was > 100 µM (inactive).

`O=C1O[C@@H](c2ccccc2)C[C@@H]1CN1CCOCC1` was tested, and the GI50 [2] was > 100 µM (inactive), the GI50 [3] was > 100 µM (inactive) and the GI50 [8] was > 100 µM (inactive). The GI50 [4] was > 100 µM (inactive), the GI50 [9] was > 100 µM (inactive) and the GI50 [7] was > 100 µM (inactive).

`COc1cc(NS(C)(=O)=O)ccc1NCc1c2ccccc2nc2ccccc12` was tested, and the GI50 [2] was 33.4 µM (inactive), the GI50 [3] was 50.8 µM (inactive) and the GI50 [8] was 29 µM (inactive). The GI50 [5] was > 10 µM (inactive), the GI50 [9] was 17.3 µM (inactive) and the GI50 [6] was 28.4 µM (inactive). The GI50 [7] was 15 µM (inactive).

For `O=C1N/C(=C\[N+](=O)[O-])c2ccccc21`, the GI50 [1] was > 100 µM (inactive), the GI50 [3] was > 100 µM (inactive) and the GI50 [8] was > 100 µM (inactive). For the same compound, the GI50 [4] was > 100 µM (inactive), the GI50 [5] was > 100 µM (inactive) and the GI50 [9] was > 100 µM (inactive). The GI50 [6] was > 100 µM (inactive) and the GI50 [7] was > 100 µM (inactive).

In the case of `C=C(c1ccccc1)[C@@]1(O)CC[C@@H]1N(CC#N)Cc1ccccc1`, the GI50 [1] is reported as 14.6 µM (inactive), the GI50 [3] is reported as 63.1 µM (inactive) and the GI50 [8] is reported as 15.9 µM (inactive). For the same compound, the GI50 [4] was 31.2 µM (inactive), the GI50 [5] was 28.3 µM (inactive) and the GI50 [9] was 17 µM (inactive). The GI50 [6] was 20.5 µM (inactive).

`O=[N+]([O-])CCc1cccc([N+](=O)[O-])c1` was tested, and the GI50 [1] was > 100 µM (inactive), the GI50 [3] was > 100 µM (inactive) and the GI50 [8] was > 100 µM (inactive). The GI50 [4] was > 100 µM (inactive), the GI50 [5] was > 100 µM (inactive) and the GI50 [9] was > 100 µM (inactive). The GI50 [6] was > 100 µM (inactive).

`COc1cc([C@@H]2c3cc4c(cc3[C@@H](OC3OC5CO[C@@H](c6cccs6)OC5C(O)C3O)[C@H]3COC(=O)[C@H]23)OCO4)cc(OC)c1O` (stereo not given in full) was tested, and the GI50 [1] was 1.57 µM (inactive), the GI50 [2] was 0.31 µM (active) and the GI50 [3] was 2.12 µM (inactive). For the same compound, the GI50 [4] was 1.08 µM (active), the GI50 [5] was 0.828 µM (active) and the GI50 [6] was 0.084 µM (active).

For `CCCN(CCCCC(NC(C)=O)C(=O)NCc1ccccc1)C(=O)NCCCl` (stereo not given), the GI50 [1] was > 100 µM (inactive), the GI50 [2] was > 100 µM (inactive) and the GI50 [3] was > 100 µM (inactive). For the same compound, the GI50 [8] was > 100 µM (inactive), the GI50 [5] was > 100 µM (inactive) and the GI50 [9] was > 100 µM (inactive). For the same compound, the GI50 [6] was > 100 µM (inactive) and the GI50 [7] was > 100 µM (inactive).

`COc1cc2cc3c4c(cc(OC)c(OC)c4c2cc1OC)CCN3C(=O)CCC(=O)NCCCN(C)C` was tested, and the GI50 [1] was > 100 µM (inactive), the GI50 [2] was 24.9 µM (inactive) and the GI50 [3] was 24.4 µM (inactive). The GI50 [8] was 61 µM (inactive), the GI50 [4] was > 100 µM (inactive) and the GI50 [5] was 22.8 µM (inactive). For the same compound, the GI50 [9] was 27.8 µM (inactive) and the GI50 [6] was 73.1 µM (inactive).

For `C#CCNC(=O)NC(CCCNC(=O)OCc1ccccc1)C(=O)OCc1ccccc1` (stereo not given), the GI50 [2] was 12.9 µM (inactive), the GI50 [3] was > 100 µM (inactive) and the GI50 [8] was > 100 µM (inactive). The GI50 [4] was > 100 µM (inactive), the GI50 [5] was 77.1 µM (inactive) and the GI50 [9] was > 100 µM (inactive). The GI50 [6] was > 100 µM (inactive) and the GI50 [7] was > 100 µM (inactive).

With `Cc1ccc2c(c1)CN(C(=O)CCC(=O)OCc1ccccc1)c1ccc(C)cc1CN2C(=O)CCC(=O)OCc1ccccc1` the GI50 [1] was > 100 µM (inactive), the GI50 [3] was > 100 µM (inactive) and the GI50 [8] was > 100 µM (inactive). The GI50 [4] was > 100 µM (inactive), the GI50 [5] was > 100 µM (inactive) and the GI50 [9] was > 100 µM (inactive). For the same compound, the GI50 [6] was > 100 µM (inactive).

For `CC(=O)O[C@H]1CCC2[C@@H]3CCC4Nc5c(cnn5-c5ccccc5)C[C@]4(C)C3CC[C@@]21C` (stereo not given in full), the GI50 [1] was 31.8 µM (inactive), the GI50 [2] was 6.52 µM (inactive) and the GI50 [3] was 8 µM (inactive). For the same compound, the GI50 [8] was 12.6 µM (inactive), the GI50 [4] was 14.4 µM (inactive) and the GI50 [5] was 11.7 µM (inactive). For the same compound, the GI50 [9] was 11.7 µM (inactive), the GI50 [6] was 3.18 µM (inactive) and the GI50 [7] was 14.9 µM (inactive).

With `CC1CCC2(C)C(CC=C(C=O)C2(O)C=O)C12CO2` (stereo not given) the GI50 [2] was 2.17 µM (inactive), the GI50 [3] was 2.49 µM (inactive) and the GI50 [8] was 1.54 µM (inactive). For the same compound, the GI50 [4] was 2.07 µM (inactive), the GI50 [5] was 1.73 µM (inactive) and the GI50 [9] was 1.57 µM (inactive). The GI50 [6] was 1.79 µM (inactive) and the GI50 [7] was 1.99 µM (inactive).

For `CCc1ccccc1-n1c2nc(=O)n(C)c(=O)c-2nc2ccccc21`, the GI50 [1] was 11.9 µM (inactive), the GI50 [2] was 10.3 µM (inactive) and the GI50 [3] was 4.08 µM (inactive). For the same compound, the GI50 [8] was 11.1 µM (inactive), the GI50 [4] was 16.9 µM (inactive) and the GI50 [5] was 1.85 µM (inactive). The GI50 [9] was 3.83 µM (inactive) and the GI50 [6] was 8.71 µM (inactive).
